Values of other authors as cited in patent US20040198838A1, “Pharmaceutical compositions containig terbinafin and use thereof” (priority 2001, published 2004).

Experiments:
CYP2D6 = CYP2D6 (Homo sapiens, UniProt P10635)
Sequence of CYP2D6 (P10635 whole entry): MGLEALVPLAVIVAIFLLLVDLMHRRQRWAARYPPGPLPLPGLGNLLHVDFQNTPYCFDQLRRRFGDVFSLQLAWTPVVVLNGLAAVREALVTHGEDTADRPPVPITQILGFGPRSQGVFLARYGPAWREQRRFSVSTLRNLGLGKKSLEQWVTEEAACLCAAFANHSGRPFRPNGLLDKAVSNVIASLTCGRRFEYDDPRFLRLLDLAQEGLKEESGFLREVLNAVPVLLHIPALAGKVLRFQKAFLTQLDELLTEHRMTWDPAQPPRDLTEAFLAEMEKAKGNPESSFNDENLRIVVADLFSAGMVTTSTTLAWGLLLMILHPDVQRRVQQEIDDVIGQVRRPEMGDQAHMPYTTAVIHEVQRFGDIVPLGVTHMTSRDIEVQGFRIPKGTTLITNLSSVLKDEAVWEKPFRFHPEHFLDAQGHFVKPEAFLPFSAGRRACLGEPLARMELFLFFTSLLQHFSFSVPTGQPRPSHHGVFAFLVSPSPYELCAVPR

CN(C/C=C/C#CC(C)(C)C)Cc1cccc2ccccc12 [terbinafine, Terbinafine]
effective half-life (in vivo): about 36 hours | reduction of clearance (patients with renal impairment (creatinine clearance up to 50 ml/min) or hepatic cirrhosis): approximately 50% | area under the curve over 24 hours (AUC) (single 250 mg terbinafine dose): about 4.56 μg.hour/ml | peak drug plasma concentration (Cmax) (single 250 mg terbinafine dose): about 1 μg/ml | time to peak drug plasma concentration (single 250 mg terbinafine dose): ≤ 2 h | factor of AUC increase in steady state versus single dose (steady state): 2.5 | increase of peak blood concentration (Cmax) in steady state versus single dose (steady state): 25% | change in AUC when administered with a meal (with a meal): moderate increase | inhibition of CYP2D6 (CYP2D6): potent inhibitor
